From article PMC9569420 (Communications Biology, 2022)

Experiments:
SLK/STK2 = target: T1, SLK/STK2 (Homo sapiens, UniProt Q9H2G2); assay: HotSpot kinase assay; type: biochemical; details: read-out: % Enzyme Activity (relative to DMSO controls)
T1 construct: purchased Reaction Biology Corporation

DDR2 = target: T2, DDR2 (Homo sapiens, UniProt Q16832); assay: HotSpot kinase assay; type: biochemical; details: read-out: % Enzyme Activity (relative to DMSO controls)
T2 construct: purchased Reaction Biology Corporation

CDK1/cyclin A = target: T3, CDK1/cyclin A (Homo sapiens, UniProt P06493); assay: HotSpot kinase assay; type: biochemical; details: read-out: % Enzyme Activity (relative to DMSO controls)
T3 construct: purchased Reaction Biology Corporation

LCK = target: T4, LCK (Homo sapiens, UniProt P06239); assay: HotSpot kinase assay; type: biochemical; details: read-out: % Enzyme Activity (relative to DMSO controls)
T4 construct: purchased Reaction Biology Corporation

STK25/YSK1 = target: T5, STK25/YSK1 (Homo sapiens, UniProt O00506); assay: HotSpot kinase assay; type: biochemical; details: read-out: % Enzyme Activity (relative to DMSO controls)
T5 construct: purchased Reaction Biology Corporation

CDK1/cyclin E = target: T6, CDK1/cyclin E (Homo sapiens, UniProt P06493); assay: HotSpot kinase assay; type: biochemical; details: read-out: % Enzyme Activity (relative to DMSO controls)
T6 construct: purchased Reaction Biology Corporation

MASTL = target: T7, MASTL (Homo sapiens, UniProt Q96GX5); assay: HotSpot kinase assay; type: biochemical; details: read-out: % Enzyme Activity (relative to DMSO controls)
T7 construct: purchased Reaction Biology Corporation

ERK7/MAPK15 = target: T8, ERK7/MAPK15 (Homo sapiens, UniProt Q8TD08); assay: HotSpot kinase assay; type: biochemical; details: read-out: % Enzyme Activity (relative to DMSO controls)
T8 construct: purchased Reaction Biology Corporation

SRMS = target: T9, SRMS (Homo sapiens, UniProt Q9H3Y6); assay: HotSpot kinase assay; type: biochemical; details: read-out: % Enzyme Activity (relative to DMSO controls)
T9 construct: purchased Reaction Biology Corporation

PLK2 = target: T10, PLK2 (Homo sapiens, UniProt Q9NYY3); assay: HotSpot kinase assay; type: biochemical; details: read-out: % Enzyme Activity (relative to DMSO controls)
T10 construct: purchased Reaction Biology Corporation

PKCb2 = target: T11, PKCb2 (Homo sapiens, UniProt P05771); assay: HotSpot kinase assay; type: biochemical; details: read-out: % Enzyme Activity (relative to DMSO controls)
T11 construct: purchased Reaction Biology Corporation

PLK1 = target: T12, PLK1 (Homo sapiens, UniProt P53350); assay: HotSpot kinase assay; type: biochemical; details: read-out: % Enzyme Activity (relative to DMSO controls)
T12 construct: purchased Reaction Biology Corporation

IR = target: T13, IR (Homo sapiens, UniProt P06213); assay: biochemical
T13 construct: purchased Reaction Biology Corporation

c-MER = target: T14, c-MER (Homo sapiens, UniProt Q12866); assay: HotSpot kinase assay; type: biochemical; details: read-out: % Enzyme Activity (relative to DMSO controls)
T14 construct: purchased Reaction Biology Corporation

SARS-CoV-2 (WA1/2020) = assay: SARS-CoV-2 infection of Huh-7.5 cells (nucleocapsid staining); details: 24 and 72 h
ACK1 = target: T15, ACK1 (Homo sapiens, UniProt Q07912); assay: HotSpot kinase assay; type: biochemical; details: read-out: % Enzyme Activity (relative to DMSO controls)
T15 construct: purchased Reaction Biology Corporation

AXL = target: T16, AXL (Homo sapiens, UniProt P30530); assay: HotSpot kinase assay; type: biochemical; details: read-out: % Enzyme Activity (relative to DMSO controls)
T16 construct: purchased Reaction Biology Corporation

IGF1R = target: T17, IGF1R (Homo sapiens, UniProt P08069); assay: HotSpot kinase assay; type: biochemical; details: read-out: % Enzyme Activity (relative to DMSO controls)
T17 construct: purchased Reaction Biology Corporation

HSV-2(G) = assay: HSV plaque assay, HaCat cells; type: cell-based; details: Human alphaherpesvirus 2, HaCaT, read-out: inhibition of HSV-2 infection
Description: After 48 h incubation, plaques were counted by immunoassay using an anti–human IgG antibody peroxidase conjugate (PA1-86064, Thermo Fisher)[33]. […] Western blots were prepared and probed for gD as a marker of bound virus and β-actin as a control.

RAF1 = target: T18, RAF1 (Homo sapiens, UniProt P04049); assay: HotSpot kinase assay; type: biochemical; details: read-out: % Enzyme Activity (relative to DMSO controls)
T18 construct: purchased Reaction Biology Corporation

PKG2/PRKG2 = target: T19, PKG2/PRKG2 (Homo sapiens, UniProt Q13237); assay: HotSpot kinase assay; type: biochemical; details: read-out: % Enzyme Activity (relative to DMSO controls)
T19 construct: purchased Reaction Biology Corporation

PKN2/PRK2 = target: T20, PKN2/PRK2 (Homo sapiens, UniProt Q16513); assay: HotSpot kinase assay; type: biochemical; details: read-out: % Enzyme Activity (relative to DMSO controls)
T20 construct: purchased Reaction Biology Corporation

CDK3/cyclin E2 = target: T21, CDK3/cyclin E2 (Homo sapiens, UniProt Q00526); assay: HotSpot kinase assay; type: biochemical; details: read-out: % Enzyme Activity (relative to DMSO controls)
T21 construct: purchased Reaction Biology Corporation

CAMKK2 = target: T22, CAMKK2 (Homo sapiens, UniProt Q96RR4); assay: HotSpot kinase assay; type: biochemical; details: read-out: % Enzyme Activity (relative to DMSO controls)
T22 construct: purchased Reaction Biology Corporation

DAPK2 = target: T23, DAPK2 (Homo sapiens, UniProt Q9UIK4); assay: HotSpot kinase assay; type: biochemical; details: read-out: % Enzyme Activity (relative to DMSO controls)
T23 construct: purchased Reaction Biology Corporation

EPHA6 = target: T24, EPHA6 (Homo sapiens, UniProt Q9UF33); assay: HotSpot kinase assay; type: biochemical; details: read-out: % Enzyme Activity (relative to DMSO controls)
T24 construct: purchased Reaction Biology Corporation

RSK1 = target: T25, RSK1 (Homo sapiens, UniProt Q15418); assay: HotSpot kinase assay; type: biochemical; details: read-out: % Enzyme Activity (relative to DMSO controls)
T25 construct: purchased Reaction Biology Corporation

TNIK = target: T26, TNIK (Homo sapiens, UniProt Q9UKE5); assay: HotSpot kinase assay; type: biochemical; details: read-out: % Enzyme Activity (relative to DMSO controls)
T26 construct: purchased Reaction Biology Corporation

PASK = target: T27, PASK (Homo sapiens, UniProt Q96RG2); assay: HotSpot kinase assay; type: biochemical; details: read-out: % Enzyme Activity (relative to DMSO controls)
T27 construct: purchased Reaction Biology Corporation

YSK4/MAP3K19 = target: T28, YSK4/MAP3K19 (Homo sapiens, UniProt Q56UN5); assay: HotSpot kinase assay; type: biochemical; details: read-out: % Enzyme Activity (relative to DMSO controls)
T28 construct: purchased Reaction Biology Corporation

MDCK-MDR1 cell = details: 5 µM
JNK3 = target: T29, JNK3 (Homo sapiens, UniProt P53779); assay: HotSpot kinase assay; type: biochemical; details: read-out: % Enzyme Activity (relative to DMSO controls)
T29 construct: purchased Reaction Biology Corporation

MKK7 = target: T30, MKK7 (Homo sapiens, UniProt O14733); assay: HotSpot kinase assay; type: biochemical; details: read-out: % Enzyme Activity (relative to DMSO controls)
T30 construct: purchased Reaction Biology Corporation

ALK6/BMPR1B = target: T31, ALK6/BMPR1B (Homo sapiens, UniProt O00238); assay: HotSpot kinase assay; type: biochemical; details: read-out: % Enzyme Activity (relative to DMSO controls)
T31 construct: purchased Reaction Biology Corporation

FGFR2 = target: T32, FGFR2 (Homo sapiens, UniProt P21802); assay: HotSpot kinase assay; type: biochemical; details: read-out: % Enzyme Activity (relative to DMSO controls)
T32 construct: purchased Reaction Biology Corporation

MST3/STK24 = target: T33, MST3/STK24 (Homo sapiens, UniProt Q9Y6E0); assay: HotSpot kinase assay; type: biochemical; details: read-out: % Enzyme Activity (relative to DMSO controls)
T33 construct: purchased Reaction Biology Corporation

ULK2 = target: T34, ULK2 (Homo sapiens, UniProt Q8IYT8); assay: HotSpot kinase assay; type: biochemical; details: read-out: % Enzyme Activity (relative to DMSO controls)
T34 construct: purchased Reaction Biology Corporation

AURORA C = target: T35, AURORA C (Homo sapiens, UniProt Q9UQB9); assay: HotSpot kinase assay; type: biochemical; details: read-out: % Enzyme Activity (relative to DMSO controls)
T35 construct: purchased Reaction Biology Corporation

CDK2/cyclin A = target: T36, CDK2/cyclin A (Homo sapiens, UniProt P24941); assay: HotSpot kinase assay; type: biochemical; details: read-out: % Enzyme Activity (relative to DMSO controls)
T36 construct: purchased Reaction Biology Corporation

RSK3 = target: T37, RSK3 (Homo sapiens, UniProt Q15349); assay: HotSpot kinase assay; type: biochemical; details: read-out: % Enzyme Activity (relative to DMSO controls)
T37 construct: purchased Reaction Biology Corporation

WNK1 = target: T38, WNK1 (Homo sapiens, UniProt Q9H4A3); assay: HotSpot kinase assay; type: biochemical; details: read-out: % Enzyme Activity (relative to DMSO controls)
T38 construct: purchased Reaction Biology Corporation

T13 sequence (P06213 980-1382 limits assumed): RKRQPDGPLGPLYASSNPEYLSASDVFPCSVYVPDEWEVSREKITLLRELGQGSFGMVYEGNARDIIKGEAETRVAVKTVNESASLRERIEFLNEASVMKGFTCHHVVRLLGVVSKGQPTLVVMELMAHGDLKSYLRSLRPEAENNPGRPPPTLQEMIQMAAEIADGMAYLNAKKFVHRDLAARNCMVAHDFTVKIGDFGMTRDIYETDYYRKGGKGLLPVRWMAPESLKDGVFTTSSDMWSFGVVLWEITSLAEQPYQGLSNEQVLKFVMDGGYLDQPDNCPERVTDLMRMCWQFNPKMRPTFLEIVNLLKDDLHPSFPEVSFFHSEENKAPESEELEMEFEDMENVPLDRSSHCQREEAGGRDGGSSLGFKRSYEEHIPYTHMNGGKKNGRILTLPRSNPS
T11 sequence (P05771 1-673 isoform P05771-2): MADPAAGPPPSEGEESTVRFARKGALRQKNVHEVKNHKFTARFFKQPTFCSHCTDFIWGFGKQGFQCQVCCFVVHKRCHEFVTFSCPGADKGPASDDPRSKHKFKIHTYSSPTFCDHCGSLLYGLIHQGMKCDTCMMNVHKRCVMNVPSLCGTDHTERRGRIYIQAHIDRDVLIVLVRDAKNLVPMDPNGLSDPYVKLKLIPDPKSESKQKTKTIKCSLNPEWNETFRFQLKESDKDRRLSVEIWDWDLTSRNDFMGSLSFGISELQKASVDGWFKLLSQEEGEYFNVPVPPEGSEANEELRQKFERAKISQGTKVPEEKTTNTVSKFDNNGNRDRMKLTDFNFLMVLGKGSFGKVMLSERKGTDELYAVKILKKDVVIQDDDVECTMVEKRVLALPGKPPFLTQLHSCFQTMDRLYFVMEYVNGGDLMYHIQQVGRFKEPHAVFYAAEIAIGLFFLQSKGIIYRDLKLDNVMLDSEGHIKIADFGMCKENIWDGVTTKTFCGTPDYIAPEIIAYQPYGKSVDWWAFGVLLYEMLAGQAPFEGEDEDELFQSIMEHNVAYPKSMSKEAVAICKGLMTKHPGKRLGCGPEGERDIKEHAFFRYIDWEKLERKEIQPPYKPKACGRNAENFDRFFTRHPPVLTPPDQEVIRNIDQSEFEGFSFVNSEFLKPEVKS
T18 sequence (P04049 whole entry): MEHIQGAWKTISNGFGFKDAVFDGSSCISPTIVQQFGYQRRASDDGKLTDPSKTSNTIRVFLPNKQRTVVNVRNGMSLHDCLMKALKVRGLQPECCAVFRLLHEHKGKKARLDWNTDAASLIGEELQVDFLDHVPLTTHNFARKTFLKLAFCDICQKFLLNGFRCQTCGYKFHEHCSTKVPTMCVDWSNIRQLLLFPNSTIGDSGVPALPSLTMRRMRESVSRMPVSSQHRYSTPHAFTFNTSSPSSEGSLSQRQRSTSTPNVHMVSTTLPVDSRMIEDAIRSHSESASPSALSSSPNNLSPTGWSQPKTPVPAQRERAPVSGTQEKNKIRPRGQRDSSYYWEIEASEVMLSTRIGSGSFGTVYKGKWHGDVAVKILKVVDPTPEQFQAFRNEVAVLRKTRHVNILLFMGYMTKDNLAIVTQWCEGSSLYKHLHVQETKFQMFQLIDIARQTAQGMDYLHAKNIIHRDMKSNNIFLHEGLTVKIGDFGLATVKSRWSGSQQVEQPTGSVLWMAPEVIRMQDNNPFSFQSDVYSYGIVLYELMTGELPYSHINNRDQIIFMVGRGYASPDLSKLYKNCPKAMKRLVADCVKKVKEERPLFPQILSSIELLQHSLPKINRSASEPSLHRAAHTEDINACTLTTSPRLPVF
T7 sequence (Q96GX5 whole entry): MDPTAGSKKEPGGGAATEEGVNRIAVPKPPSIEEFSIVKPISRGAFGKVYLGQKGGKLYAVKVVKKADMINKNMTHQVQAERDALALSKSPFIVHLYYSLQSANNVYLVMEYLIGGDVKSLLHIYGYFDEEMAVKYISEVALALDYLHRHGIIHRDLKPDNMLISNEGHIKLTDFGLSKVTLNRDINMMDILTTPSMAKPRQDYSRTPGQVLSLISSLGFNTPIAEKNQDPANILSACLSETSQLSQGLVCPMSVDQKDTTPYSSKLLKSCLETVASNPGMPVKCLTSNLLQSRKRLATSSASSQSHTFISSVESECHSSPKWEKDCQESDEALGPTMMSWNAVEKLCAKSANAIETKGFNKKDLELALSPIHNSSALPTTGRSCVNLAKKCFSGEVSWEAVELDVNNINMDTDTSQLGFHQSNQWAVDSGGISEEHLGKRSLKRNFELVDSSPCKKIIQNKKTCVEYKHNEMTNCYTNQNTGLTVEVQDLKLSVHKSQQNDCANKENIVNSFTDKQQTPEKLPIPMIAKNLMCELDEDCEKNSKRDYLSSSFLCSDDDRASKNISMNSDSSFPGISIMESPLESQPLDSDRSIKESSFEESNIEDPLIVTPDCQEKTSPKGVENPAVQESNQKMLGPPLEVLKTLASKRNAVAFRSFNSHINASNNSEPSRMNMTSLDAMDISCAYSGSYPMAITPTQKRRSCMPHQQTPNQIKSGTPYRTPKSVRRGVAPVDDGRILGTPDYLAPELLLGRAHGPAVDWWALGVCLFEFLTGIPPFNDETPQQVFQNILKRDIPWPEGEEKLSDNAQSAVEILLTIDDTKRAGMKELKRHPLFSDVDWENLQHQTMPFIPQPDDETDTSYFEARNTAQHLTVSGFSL
T28 sequence (Q56UN5 whole entry): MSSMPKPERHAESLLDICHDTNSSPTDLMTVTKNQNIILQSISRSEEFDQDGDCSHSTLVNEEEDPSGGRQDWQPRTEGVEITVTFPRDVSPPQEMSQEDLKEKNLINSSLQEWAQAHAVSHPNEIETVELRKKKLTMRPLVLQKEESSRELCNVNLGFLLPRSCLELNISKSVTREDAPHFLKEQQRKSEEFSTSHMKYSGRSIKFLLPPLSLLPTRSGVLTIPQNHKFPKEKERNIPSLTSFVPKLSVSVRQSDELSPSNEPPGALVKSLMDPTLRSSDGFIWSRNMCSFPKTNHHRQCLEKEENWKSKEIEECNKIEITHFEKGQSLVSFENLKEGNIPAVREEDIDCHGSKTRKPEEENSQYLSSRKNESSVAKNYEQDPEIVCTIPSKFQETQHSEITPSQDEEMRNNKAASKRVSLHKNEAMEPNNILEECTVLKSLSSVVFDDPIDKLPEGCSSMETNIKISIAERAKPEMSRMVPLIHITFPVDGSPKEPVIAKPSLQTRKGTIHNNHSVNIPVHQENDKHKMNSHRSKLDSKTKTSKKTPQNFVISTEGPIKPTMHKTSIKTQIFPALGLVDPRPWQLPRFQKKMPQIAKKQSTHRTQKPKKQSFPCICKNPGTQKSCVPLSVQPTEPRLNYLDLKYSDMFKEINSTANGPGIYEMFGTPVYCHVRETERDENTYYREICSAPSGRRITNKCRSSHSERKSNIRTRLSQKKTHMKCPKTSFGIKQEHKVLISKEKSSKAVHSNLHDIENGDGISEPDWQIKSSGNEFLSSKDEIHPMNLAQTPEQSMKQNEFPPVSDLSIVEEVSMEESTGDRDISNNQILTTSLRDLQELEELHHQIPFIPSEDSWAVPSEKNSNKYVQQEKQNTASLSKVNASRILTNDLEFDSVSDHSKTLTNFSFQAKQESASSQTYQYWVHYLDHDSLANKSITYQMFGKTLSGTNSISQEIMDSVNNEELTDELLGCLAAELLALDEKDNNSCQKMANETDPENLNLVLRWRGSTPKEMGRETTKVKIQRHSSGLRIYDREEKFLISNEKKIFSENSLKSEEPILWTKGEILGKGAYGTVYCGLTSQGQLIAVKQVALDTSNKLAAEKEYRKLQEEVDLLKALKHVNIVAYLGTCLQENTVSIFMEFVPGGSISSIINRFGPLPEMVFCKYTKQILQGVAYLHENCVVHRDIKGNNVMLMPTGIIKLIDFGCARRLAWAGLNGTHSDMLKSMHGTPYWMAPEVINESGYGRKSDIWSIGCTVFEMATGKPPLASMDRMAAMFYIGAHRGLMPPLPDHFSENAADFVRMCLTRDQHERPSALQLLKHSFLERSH
T19 sequence (Q13237 whole entry): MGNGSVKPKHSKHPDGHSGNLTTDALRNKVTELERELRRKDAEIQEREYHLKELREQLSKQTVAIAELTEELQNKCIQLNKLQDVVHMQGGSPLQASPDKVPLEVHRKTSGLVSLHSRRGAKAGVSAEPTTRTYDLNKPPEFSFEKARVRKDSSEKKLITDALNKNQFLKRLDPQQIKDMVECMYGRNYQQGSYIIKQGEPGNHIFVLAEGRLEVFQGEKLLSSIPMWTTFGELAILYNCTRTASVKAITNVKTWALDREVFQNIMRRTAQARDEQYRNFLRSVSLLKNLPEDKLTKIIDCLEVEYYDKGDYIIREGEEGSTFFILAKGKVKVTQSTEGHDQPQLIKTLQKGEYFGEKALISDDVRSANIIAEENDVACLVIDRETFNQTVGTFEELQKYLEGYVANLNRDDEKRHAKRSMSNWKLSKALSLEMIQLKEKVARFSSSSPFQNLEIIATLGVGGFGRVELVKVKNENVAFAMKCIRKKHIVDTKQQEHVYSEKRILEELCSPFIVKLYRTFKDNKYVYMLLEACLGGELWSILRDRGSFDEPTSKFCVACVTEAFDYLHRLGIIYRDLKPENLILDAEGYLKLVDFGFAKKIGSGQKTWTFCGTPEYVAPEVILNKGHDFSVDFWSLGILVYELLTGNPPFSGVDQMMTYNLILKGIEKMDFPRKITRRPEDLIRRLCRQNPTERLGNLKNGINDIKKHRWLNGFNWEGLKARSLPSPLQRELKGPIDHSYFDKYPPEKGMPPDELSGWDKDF
T35 sequence (Q9UQB9 whole entry): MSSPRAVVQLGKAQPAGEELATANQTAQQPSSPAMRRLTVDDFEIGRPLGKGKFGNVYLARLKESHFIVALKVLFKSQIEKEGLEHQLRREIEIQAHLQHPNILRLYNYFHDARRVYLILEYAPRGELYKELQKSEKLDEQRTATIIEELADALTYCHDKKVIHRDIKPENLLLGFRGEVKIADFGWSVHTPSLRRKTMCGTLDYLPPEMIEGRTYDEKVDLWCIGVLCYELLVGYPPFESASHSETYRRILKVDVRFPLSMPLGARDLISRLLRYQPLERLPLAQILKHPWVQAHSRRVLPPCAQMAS

## CO[C@@H]1[C@H](N(C)C(=O)CCC(=O)NCc2cn(CCCS(=O)(=O)O)nn2)C[C@H]2O[C@]1(C)n1c3ccccc3c3c4c(c5c6ccccc6n2c5c31)C(=O)NC4 [CIMSS]
SLK/STK2
  remaining activity at 10 µM: 6.42%
DDR2
  remaining activity at 10 µM: 1.67%
CDK1/cyclin A
  remaining activity at 10 µM: 21.3%
LCK
  remaining activity at 10 µM: 3.41%
STK25/YSK1
  remaining activity at 10 µM: 4.17%
CDK1/cyclin E
  remaining activity at 10 µM: 18%
MASTL
  remaining activity at 10 µM: 33.8%
ERK7/MAPK15
  remaining activity at 10 µM: 27.9%
SRMS
  remaining activity at 10 µM: 91%
PLK2
  remaining activity at 10 µM: 27.4%
PKCb2
  remaining activity at 10 µM: 1.71%
PLK1
  remaining activity at 10 µM: 17.1%
IR; Supplementary Table 1, Insulin Receptor, read-out: IC50 (Molar concentration)
  IC50: 803 nM
IR; read-out: % Enzyme Activity (relative to DMSO controls), 10µM
  remaining activity at 10 µM: 15.8%
c-MER
  remaining activity at 10 µM: 2.17%
SARS-CoV-2 (WA1/2020)
  authentic SARS-CoV-2 (WA1/2020) infection: inhibitory activity
ACK1
  remaining activity at 10 µM: 7.33%
AXL
  remaining activity at 10 µM: 3.61%
IGF1R
  remaining activity at 10 µM: 6.72%
HSV-2(G)
  inhibition at 10 µM: > 75%
RAF1
  remaining activity at 10 µM: 111%
PKG2/PRKG2
  remaining activity at 10 µM: 1.99%
PKN2/PRK2
  remaining activity at 10 µM: 6.62%
CDK3/cyclin E2
  remaining activity at 10 µM: 22.3%
CAMKK2
  remaining activity at 10 µM: 1.86%
DAPK2
  remaining activity at 10 µM: 11.3%
EPHA6
  remaining activity at 10 µM: 34.6%
RSK1
  remaining activity at 10 µM: 3.27%
TNIK
  remaining activity at 10 µM: 1.22%
PASK
  remaining activity at 10 µM: 41.6%
YSK4/MAP3K19
  remaining activity at 10 µM: 3.4%
MDCK-MDR1 cell
  Recover %: 96%
JNK3
  remaining activity at 10 µM: 23.6%
MKK7
  remaining activity at 10 µM: 96.2%
ALK6/BMPR1B
  remaining activity at 10 µM: 88.3%
FGFR2
  remaining activity at 10 µM: 2.58%
MST3/STK24
  remaining activity at 10 µM: 16.6%
ULK2
  remaining activity at 10 µM: 13.6%
AURORA C
  remaining activity at 10 µM: 2.59%
CDK2/cyclin A
  remaining activity at 10 µM: 5.14%
RSK3
  remaining activity at 10 µM: 3.38%
WNK1
  remaining activity at 10 µM: 110%
